Literature values as cited in patent US9126163B2, “Nanoemulsions and processes for their preparation, and their use as formulations of plant protection agents and/or pesticides and/or cosmetic preparations” (Evonik Degussa GmbH, priority 2008, dated 2015).
Converted amounts (≈) assume the structure as drawn.

Compound	solubility in water
Cc1c(COC(=O)[C@@H]2[C@H](/C=C(\Cl)C(F)(F)F)C2(C)C)cccc1-c1ccccc1 (racemic) [bifenthrin]	< 0.001 mg/L
Fc1ccc([C@]2(Cn3cncn3)O[C@H]2c2ccccc2Cl)cc1 (racemic) [epoxyconazole]	6.63*10^−4 g/100 ml
CO/C=C(/C(=O)OC)c1ccccc1Oc1cc(Oc2ccccc2C#N)ncn1 [azoxystrobin]	6 mg/L (≈ 14.9 µM)
COC(=O)Nc1nc2ccccc2[nH]1 [carbendazim]	29 mg/L (≈ 152 µM)
O=C(Nc1ccc([N+](=O)[O-])cc1Cl)c1cc(Cl)ccc1O [niclosamide]	100 mg/L (≈ 306 µM)
COc1cc(OC)nc(NC(=O)NS(=O)(=O)c2ncccc2C(=O)N(C)C)n1 [nicosulfuron]	70 mg/L (≈ 171 µM)
CC1(C)C(C=C(Cl)Cl)C1C(=O)OCc1cccc(Oc2ccccc2)c1 (stereo not shown) [permethrin]	0.006 mg/L (≈ 0.0153 µM)
CCCCCCCCCCCCCN1CC(C)OC(C)C1 (stereo not shown) [tridemorph]	1.1 mg/L (≈ 3.7 µM)
abamectin	0.007 to 0.01 mg/L
mancozeb	6.2 ppm
